Laboratory results from ChEMBL document CHEMBL1201862, “PubChem BioAssay data set” (2004).
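96-well plates; 48 h exposure; 5 concentrations. Endpoints by linear interpolation between flanking doses. Not reached: highest tested concentration assigned. At the GI50, growth is halved.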 Calls of active or inactive are those of the source. Cut-off read from the data, not from the text of the source: active = GI50 up to about 1.1 µM and inactive = higher.

How the values were obtained:
Assay in all cases: DTP human tumour cell line panel, 48 h
SF-268 = test system: SF-268
786-0 = test system: 786-0
HOP-62 = test system: HOP-62
RXF 393 = test system: RXF 393
SK-MEL-5 = test system: SK-MEL-5
OVCAR-8 = test system: OVCAR-8
IGROV-1 = test system: IGROV-1
SF-539 = test system: SF-539
TK-10 = test system: TK-10
SNB-75 = test system: SNB-75
RPMI-8226 = test system: RPMI-8226
ACHN = test system: ACHN
SNB-19 = test system: SNB-19
HOP-18 = test system: HOP-18
U-251 = test system: U-251
UACC-62 = test system: UACC-62
RXF 631 = test system: RXF 631
HCT-116 = test system: HCT-116
OVCAR-4 = test system: OVCAR-4
NCI-H23 = test system: NCI-H23
NCI-H460 = test system: NCI-H460
SK-MEL-28 = test system: SK-MEL-28
DMS-114 = test system: DMS-114
K562 = test system: K562
SNB-78 = test system: SNB-78
EKVX = test system: EKVX
HCC 2998 = test system: HCC 2998
XF498 = test system: XF498
SW-620 = test system: SW-620
KM-20L2 = test system: KM-20L2
UACC-257 = test system: UACC-257
SF-295 = test system: SF-295
SK-MEL-2 = test system: SK-MEL-2
NCI-H226 = test system: NCI-H226
LOX IMVI = test system: LOX IMVI
HOP-92 = test system: HOP-92
KM12 = test system: KM12
A498 = test system: A498
DLD-1 = test system: DLD-1
UO-31 = test system: UO-31
LXFL 529 = test system: LXFL 529
CCRF-CEM = test system: CCRF-CEM
HCT-15 = test system: HCT-15
DMS-273 = test system: DMS-273
HT-29 = test system: HT-29
CAKI-1 = test system: CAKI-1
M14 = test system: M14
COLO 205 = test system: COLO 205
SR = test system: SR
SN12C = test system: SN12C
NCI-H522 = test system: NCI-H522
Malme-3M = test system: Malme-3M
SK-OV-3 = test system: SK-OV-3
HL-60 = test system: HL-60
OVCAR-3 = test system: OVCAR-3
A549 = test system: A549
OVCAR-5 = test system: OVCAR-5
MOLT-4 = test system: MOLT-4
M19-MEL = test system: M19-MEL

## Cn1c2c([N+](=O)[O-])[se]nc2c(=O)n1-c1ccc([N+](=O)[O-])cc1
SF-268
  GI50: 2.21 µM (inactive)
786-0
  GI50: 2.44 µM (inactive)
HOP-62
  GI50: 3.97 µM (inactive)
RXF 393
  GI50: 0.665 µM (active)
SK-MEL-5
  GI50: 4.43 µM (inactive)
OVCAR-8
  GI50: 1.02 µM (active)
IGROV-1
  GI50: 1.29 µM (inactive)
SF-539
  GI50: 1.88 µM (inactive)
TK-10
  GI50: 7.55 µM (inactive)
SNB-75
  GI50: 4.03 µM (inactive)
RPMI-8226
  GI50: 1.82 µM (inactive)
ACHN
  GI50: 1.95 µM (inactive)
SNB-19
  GI50: 6.01 µM (inactive)
HOP-18
  GI50: 2.82 µM (inactive)
U-251
  GI50: 2.51 µM (inactive)
UACC-62
  GI50: 1.6 µM (inactive)
RXF 631
  GI50: 1.5 µM (inactive)
HCT-116
  GI50: 0.887 µM (active)
OVCAR-4
  GI50: 0.447 µM (active)
NCI-H23
  GI50: 1.98 µM (inactive)
NCI-H460
  GI50: 2.31 µM (inactive)
SK-MEL-28
  GI50: 2.11 µM (inactive)
DMS-114
  GI50: 0.254 µM (active)
K562
  GI50: 0.0664 µM (active)
SNB-78
  GI50: 1.99 µM (inactive)
EKVX
  GI50: 2.38 µM (inactive)
HCC 2998
  GI50: 1.74 µM (inactive)
XF498
  GI50: 2.26 µM (inactive)
SW-620
  GI50: 0.357 µM (active)
KM-20L2
  GI50: 6.9 µM (inactive)
UACC-257
  GI50: 1.96 µM (inactive)
SF-295
  GI50: 3.13 µM (inactive)
SK-MEL-2
  GI50: 3.34 µM (inactive)
NCI-H226
  GI50: 2.96 µM (inactive)
LOX IMVI
  GI50: 2.61 µM (inactive)
HOP-92
  GI50: 1.63 µM (inactive)
KM12
  GI50: 4.51 µM (inactive)
A498
  GI50: 11.4 µM (inactive)
DLD-1
  GI50: 0.746 µM (active)
UO-31
  GI50: 1.91 µM (inactive)
LXFL 529
  GI50: 1.25 µM (inactive)
CCRF-CEM
  GI50: 0.627 µM (active)
HCT-15
  GI50: 1.25 µM
DMS-273
  GI50: 2.5 µM (inactive)
HT-29
  GI50: 2.74 µM (inactive)
CAKI-1
  GI50: 1.94 µM (inactive)
M14
  GI50: 1.29 µM (inactive)
COLO 205
  GI50: 1.67 µM (inactive)
SR
  GI50: 0.0474 µM (active)
SN12C
  GI50: 1.71 µM (inactive)
NCI-H522
  GI50: 1.7 µM (inactive)
Malme-3M
  GI50: 1.75 µM (inactive)
SK-OV-3
  GI50: 2.72 µM (inactive)
HL-60
  GI50: 0.615 µM (active)
OVCAR-3
  GI50: 1.73 µM (inactive)
A549
  GI50: 7.24 µM (inactive)
OVCAR-5
  GI50: 2.12 µM (inactive)

## CN(C)CCCNC(=O)c1cccc2nc3ccccc3nc12
MOLT-4
  GI50: 9.77 µM (inactive)
SF-268
  GI50: 0.32 µM (active)
786-0
  GI50: 51.1 µM (inactive)
HOP-62
  GI50: 19.9 µM (inactive)
RXF 393
  GI50: 15.6 µM (inactive)
SK-MEL-5
  GI50: > 54 µM (inactive)
OVCAR-8
  GI50: 12.6 µM (inactive)
IGROV-1
  GI50: 34.2 µM (inactive)
SF-539
  GI50: 16.3 µM (inactive)
TK-10
  GI50: 27.7 µM (inactive)
SNB-75
  GI50: 35.8 µM (inactive)
RPMI-8226
  GI50: 20.1 µM (inactive)
ACHN
  GI50: 7.43 µM (inactive)
SNB-19
  GI50: 19.8 µM (inactive)
HOP-18
  GI50: > 42.5 µM (inactive)
U-251
  GI50: 19.1 µM (inactive)
UACC-62
  GI50: 24.1 µM (inactive)
M19-MEL
  GI50: 6.58 µM (inactive)
RXF 631
  GI50: 32.6 µM (inactive)
HCT-116
  GI50: 4.83 µM (inactive)
OVCAR-4
  GI50: 14.1 µM (inactive)
NCI-H23
  GI50: 14.8 µM (inactive)
SK-MEL-28
  GI50: 19.2 µM (inactive)
DMS-114
  GI50: 12.3 µM (inactive)
K562
  GI50: 7.46 µM (inactive)
SNB-78
  GI50: 14.3 µM (inactive)
EKVX
  GI50: 27.3 µM (inactive)
HCC 2998
  GI50: 14.8 µM (inactive)
XF498
  GI50: 1.14 µM (inactive)
SW-620
  GI50: 8.13 µM (inactive)
KM-20L2
  GI50: 25.1 µM (inactive)
UACC-257
  GI50: 13.2 µM (inactive)
SF-295
  GI50: 19.5 µM (inactive)
SK-MEL-2
  GI50: 14.8 µM (inactive)
NCI-H226
  GI50: 12 µM (inactive)
LOX IMVI
  GI50: 6.52 µM (inactive)
HOP-92
  GI50: 50.4 µM (inactive)
KM12
  GI50: 13.5 µM (inactive)
A498
  GI50: 16 µM (inactive)
DLD-1
  GI50: > 41.6 µM (inactive)
UO-31
  GI50: 24.5 µM (inactive)
LXFL 529
  GI50: 20.2 µM (inactive)
HCT-15
  GI50: 15.2 µM
DMS-273
  GI50: 9.91 µM (inactive)
HT-29
  GI50: 6.75 µM (inactive)
CAKI-1
  GI50: > 36.1 µM (inactive)
M14
  GI50: 22 µM (inactive)
COLO 205
  GI50: 6.95 µM (inactive)
SR
  GI50: 4.57 µM (inactive)
SN12C
  GI50: 23.2 µM (inactive)
NCI-H522
  GI50: 26.6 µM (inactive)
Malme-3M
  GI50: 4.42 µM (inactive)
SK-OV-3
  GI50: > 52.1 µM (inactive)
OVCAR-3
  GI50: 19.4 µM (inactive)
A549
  GI50: 12.2 µM (inactive)
OVCAR-5
  GI50: 20.9 µM (inactive)
